Experimental data taken from US12559487B2, “Crosslinked optically active secondary amine derivative” (Sumitomo Pharma Co., Ltd., priority 2019, dated 2026).
pIC50: −log10 of the molar value.

What was measured:
MV4; 11 cells = assay: Test 1: Test for evaluating the inhibition of cell proliferation; format: cell-based; settings: cultured for 7 days, PrestoBlue cell viability
Description: MV4; 11 cells were obtained from American Type Culture Collection (ATCC). The cells were cultured at 37° C. in the presence of 5% CO2 in RPMI 1640 medium containing 10% fetal bovine serum and 1% penicillin/streptomycin.
The cells were plated to a 96-well plate in 2000 cells/well, each test compound was added thereto to adjust the final concentration of DMSO to 0.1% of DMSO, and the cells were cultured for 7 days. After the cultivation, the cell viability was calculated with PrestoBlue™ Cell Viability Reagent (Invitrogen, A13261).

[1] = target: hERG (human Ether-a-go-go Related Gene) (Homo sapiens (Human), UniProt Q12809)
hERG (human Ether-a-go-go Related Gene), sequence (Q12809 whole entry): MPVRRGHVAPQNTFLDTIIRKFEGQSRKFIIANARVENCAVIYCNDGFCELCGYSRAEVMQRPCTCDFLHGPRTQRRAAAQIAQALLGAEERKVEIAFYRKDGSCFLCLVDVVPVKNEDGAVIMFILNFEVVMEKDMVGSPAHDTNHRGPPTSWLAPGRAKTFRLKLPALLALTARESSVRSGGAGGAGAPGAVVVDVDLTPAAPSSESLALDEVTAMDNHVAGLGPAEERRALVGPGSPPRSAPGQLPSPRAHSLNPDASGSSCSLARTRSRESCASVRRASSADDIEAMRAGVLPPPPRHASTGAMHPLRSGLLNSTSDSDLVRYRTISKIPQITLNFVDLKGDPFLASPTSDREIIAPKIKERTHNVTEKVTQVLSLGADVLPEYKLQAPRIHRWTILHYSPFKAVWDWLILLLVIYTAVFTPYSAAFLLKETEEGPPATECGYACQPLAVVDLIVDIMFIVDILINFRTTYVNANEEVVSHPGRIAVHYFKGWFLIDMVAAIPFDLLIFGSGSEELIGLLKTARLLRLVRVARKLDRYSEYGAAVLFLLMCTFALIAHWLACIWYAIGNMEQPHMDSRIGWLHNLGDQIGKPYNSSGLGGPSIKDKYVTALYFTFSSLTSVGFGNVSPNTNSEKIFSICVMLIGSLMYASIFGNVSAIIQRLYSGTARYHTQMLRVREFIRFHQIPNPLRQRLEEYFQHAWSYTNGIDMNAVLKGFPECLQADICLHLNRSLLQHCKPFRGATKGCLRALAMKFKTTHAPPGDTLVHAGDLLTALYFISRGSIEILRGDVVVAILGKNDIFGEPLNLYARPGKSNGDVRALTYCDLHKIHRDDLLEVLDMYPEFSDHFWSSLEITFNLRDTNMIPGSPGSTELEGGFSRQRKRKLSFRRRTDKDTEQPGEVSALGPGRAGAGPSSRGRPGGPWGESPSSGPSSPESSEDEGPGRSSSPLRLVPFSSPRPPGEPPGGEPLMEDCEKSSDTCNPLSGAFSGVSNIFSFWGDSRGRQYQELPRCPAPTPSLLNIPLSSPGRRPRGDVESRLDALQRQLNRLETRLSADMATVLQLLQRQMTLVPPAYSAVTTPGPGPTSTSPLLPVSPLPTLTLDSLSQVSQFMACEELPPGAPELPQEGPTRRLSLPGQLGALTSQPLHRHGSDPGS

Row | Substance | pIC50 (MV4; 11 cells) | hERG/MV4; 11 [1]
1 | 2-(3-{1-[(3S)-2-azabicyclo[2.2.2]octane-3-carbonyl]piperidin-3-yl}-1H-pyrrolo[2,3-c]pyridin-1-yl)-5-fluoro-N-methyl-N-(propan-2-yl)benzamide [Example 9] | 5.77 | 22
2 | 5-fluoro-N-methyl-2-(3-{1-[(1S,3S,4R)-5-methylidene-2-azabicyclo[2.2.1]heptane-3-carbonyl]azepan-4-yl}-1H-pyrrolo[2,3-c]pyridin-1-yl)-N-(propan-2-yl)benzamide [Example 13] | 6.89 | 198
